According to patent US5474986A, “Method for treating galabiose-binding bacteria infections” (priority 1988, dated 1995):

Tested on: E. coli HB101/pPAP5 (agglutination of human erythrocytes)
Assay: Inhibition of haemagglutination (HA inhibition) of human erythrocytes by E. coli
Assay type: cell-based
Conditions: for IC50: Escherichia coli, Erythrocyte; for Relative potency (%): in relation to compound 1, calculated from IC50; for ΔΔG^o: ΔΔG°=RTlnKrel, Krel = IC50 ratio to compound 1; for inhibitory power (in words): haemagglutination inhibition, compared with the methyl galabioside / unmodified galabioside
Description: Bacterial strain HB101/pPAPS. Plasmid pPAP5 carries the pap gene cluster isolated from the uropathogenic E.coli isolate J96. The clone produces P pill that mediate agglutination of human erythrocytes by binding to the galabiose-containing P-blood group antigens present on the erythrocyte surface. The galabiose binding property resides in the PapG gene product which is present at the tip of the P pilus as a minor component.
HA of a 1% human P erythrocyte suspension in phosphate-buffered saline was determined for agar-grown organisms by suspending the bacteria to a Klett of 490 (ca 1×10^9 bacteria/mL). A sample of the bacterial suspension (25 μL) was serially diluted in microtiter plates containing 25 μL PBS in each well. An equal volume of erythrocyte suspension was added and after mixing, the plates were incubated at 4° C. for 18 h. The HA endpoint was defined as the dilution in the last well before erythrocyte buttons were formed. The titer was expressed as the reciprocal of the endpoint dilution.
The HA titer of the strains to be tested was determined as described above and the cells were diluted so that each strain gave a titer of 64. The concentration of each of the analogues 1-25 was adjusted to 100 mM and 25 μL of each analogue was serially diluted in microtiter plates containing 25 μL of PBS in each well. The bacterial suspension (25 μL; HA titer=64) was then added to each well. After incubation for 30 min at room temperature, human erythrocytes (1% suspension) were added by gentle mixing and the plates were incubated at 4° C. overnight. The endpoint was defined as the greatest dilution of the analogue (minimal concentration) that gave a 50% inhibition of the HA (IC50).
The IC50 -values given in the tables are mean values from 3 consecutive runs. The ratio of the IC50 -value for an inhibitor and compound 1 is the relative equilibrium constant, Krel. This value was used for the calculation of the difference free energy values (ΔΔG°) using the expression ΔΔG°=RTlnKrel. It should be stressed that the conclusions made here about the nature of the adhesin receptor is based on the assumption that all the inhibitors have similar over-all confirmations oriented in a similar way in the receptor side and that only one type of galablest-specific receptor is present in the adhesin.

[1] = Table 1, inhibition of agglutination of human erythrocytes by E. coli, mean of 3 consecutive runs
[2] = Table 2, glycoside analogs, inhibition of agglutination of human erythrocytes by E. coli, mean of 3 runs
[3] = Table 2, in relation to compound 1 (IC50 0.20 mM)
[4] = Table 2, relative to compound 1 (IC50 0.20 mM)
[5] = Table 2, footnote a: separate inhibition experiment where reference compound 1 showed IC50 = 0.0434 mM
[6] = Table 2, footnote a: separate experiment, relative to compound 1 IC50 = 0.0434 mM

Compound | IC50 [1] [µM] | Relative potency (%) (Table 1) | ΔΔG^o (Table 1) [kcal/mol] | IC50 [2] [µM] | Inhib. power (%) [3] [%] | ΔΔG (kJmol^-1) [4] [kJmol^-1] | also measured
CO[C@@H]1O[C@H](CO)[C@H](O[C@H]2O[C@H](CF)[C@H](O)[C@H](O)[C@H]2O)[C@H](O)[C@H]1O [Compound 14] | 350 | 56 | 0.323 | – | – | – | –
OC[C@H]1O[C@H](O[C@@H]2[C@H](O)[C@@H](O)C(O)O[C@@H]2CO)[C@H](O)[C@@H](O)[C@H]1O (stereo partly shown) [Compound 24] | – | – | – | 1400 | 14 | 4.6 | –
CO[C@@H]1O[C@H](CO)[C@H](O[C@@H]2C[C@@H](O)[C@@H](O)[C@@H](CO)O2)[C@H](O)[C@H]1O [Compound 5] | 2600 | 7.6 | 1.43 | – | – | – | –
CCO[C@@H]1O[C@H](CO)[C@H](O[C@H]2O[C@H](CO)[C@H](O)[C@H](O)[C@H]2O)[C@H](O)[C@H]1O [Compound 18] | – | – | – | 130 | 150 | -0.9 | –
C[Si](C)(C)CCO[C@@H]1O[C@H](CO)[C@H](O[C@H]2O[C@H](CO)[C@H](O)[C@H](O)[C@H]2O)[C@H](O)[C@H]1O [Compound 20] | – | – | – | 49 | 400 | -3.2 | –
CO[C@@H]1O[C@H](CO)[C@H](O[C@H]2O[C@H](C)[C@H](O)[C@H](O)[C@H]2O)[C@H](O)[C@H]1O [Compound 8] | 3700 | 5.3 | 1.63 | – | – | – | –
CO[C@@H]1O[C@H](CO)[C@H](O[C@H]2O[C@H](CO)[C@H](O)[C@H](OC)[C@H]2O)[C@H](O)[C@H]1O [Compound 11, Methyl 4-O-(3-O-methyl-α-D-galactopyranosyl)-β-D-galactopyranoside] | 87 | 220 | -0.43 | – | – | – | inhibitory power (in words): marked increase in the inhibitory power
CO[C@@H]1O[C@H](CO)[C@H](O[C@H]2O[C@H](CO)[C@H](O)[C@H](O)[C@H]2O)[C@H](C)[C@H]1O [Compound 15] | 390 | 50 | 0.382 | – | – | – | –
CC[C@@H]1[C@@H](O)[C@H](OC)O[C@H](CO)[C@@H]1O[C@H]1O[C@H](CO)[C@H](O)[C@H](O)[C@H]1O [Compound 16] | 3800 | 5.1 | 1.65 | – | – | – | –
CO[C@@H]1O[C@H](CO)[C@H](O[C@H]2O[C@H](CO)C[C@H](O)[C@H]2O)[C@H](O)[C@H]1O [Compound 7] | 10000 | 1.9 | 2.2 | – | – | – | –
OCC(O)CO[C@@H]1O[C@H](CO)[C@H](O[C@H]2O[C@H](CO)[C@H](O)[C@H](O)[C@H]2O)[C@H](O)[C@H]1O (stereo partly shown) [Compound 21] | – | – | – | 130 | 150 | -0.9 | –
CO[C@@H]1O[C@H](CO)[C@H](O[C@H]2O[C@H](CO)[C@H](F)[C@H](O)[C@H]2O)[C@H](O)[C@H]1O [Compound 13] | 3500 | 5.6 | 1.6 | – | – | – | –
CCS[C@@H]1O[C@H](CO)[C@H](O[C@H]2O[C@H](CO)[C@H](O)[C@H](O)[C@H]2O)[C@H](O)[C@H]1O [Compound 28, Ethyl 1-thio-4-O-(α-D-galactopyranosyl)-β-D-galactopyranoside] | – | – | – | – | – | – | IC50 [5]: 16.3 µM; Inhib. power (%) [6]: 266%; ΔΔG (kJmol^-1) [6]: -2.3 kJmol^-1
COC[C@H]1O[C@@H](OC)[C@H](O)[C@@H](O)[C@H]1O[C@H]1O[C@H](CO)[C@H](O)[C@H](O)[C@H]1O [Compound 10] | > 25000 | < 1 | > 2.63 | – | – | – | –
CO[C@H]1O[C@H](CO)[C@H](O[C@H]2O[C@H](CO)[C@H](O)[C@H](O)[C@H]2O)[C@H](O)[C@H]1O [Compound 23] | – | – | – | 2100 | 9.0 | 5.6 | –
CCCCS(=O)(=O)CC(CO[C@@H]1O[C@H](CO)[C@H](O[C@H]2O[C@H](CO)[C@H](O)[C@H](O)[C@H]2O)[C@H](O)[C@H]1O)CS(=O)(=O)CCCC [Compound 27, 3-Butylsulfonyl-2-butylsulfonylmethylpropyl 4-O-α-D-galactopyranosyl-β-D-galactopyranoside] | – | – | – | – | – | – | IC50 [5]: 2.3 µM; Inhib. power (%) [6]: 1887%; ΔΔG (kJmol^-1) [6]: -6.8 kJmol^-1
CO[C@@H]1O[C@H](CF)[C@H](O[C@H]2O[C@H](CO)[C@H](O)[C@H](O)[C@H]2O)[C@H](O)[C@H]1O [Compound 12] | 9300 | 2.1 | 2.15 | – | – | – | –
CO[C@@H]1O[C@H](CO)[C@H](O[C@H]2O[C@H](CO)[C@H](O)[C@H](O)[C@H]2O)[C@H](O)[C@H]1O [Compound 1, Galα1-4GalβOMe, reference compound] | 200 | – | 0 | 200 | – | 0.00 | IC50 [5]: 43.4 µM
CO[C@@H]1O[C@H](CO)[C@H](O[C@H]2O[C@H](CO)[C@H](O)[C@H](O)[C@H]2O)C[C@H]1O [Compound 3] | 1000 | 19 | 0.932 | – | – | – | –
CO[C@@H]1O[C@H](C)[C@H](O[C@H]2O[C@H](CO)[C@H](O)[C@H](O)[C@H]2O)[C@H](O)[C@H]1O [Compound 4] | 4200 | 4.7 | 1.7 | – | – | – | –
CCO[C@@H]1O[C@H](CO)[C@@H](O[C@@H]2O[C@H](CO)[C@H](O)[C@H](O)[C@H]2O)[C@H](O)[C@H]1O [Compound 26, Galβ1-4GlcβOCH2 CH3, reference compound] | – | – | – | > 25000 | < 1.0 | > 11 | –
CO[C@@H]1O[C@H](CO)[C@H](O[C@H]2O[C@H](CO)[C@H](O)[C@H](O)[C@H]2O)[C@H](OC)[C@H]1O [Compound 9] | 1600 | 12 | 1.17 | – | – | – | –
CC(C)CO[C@@H]1O[C@H](CO)[C@H](O[C@H]2O[C@H](CO)[C@H](O)[C@H](O)[C@H]2O)[C@H](O)[C@H]1O [Compound 19] | – | – | – | 87 | 220 | -1.8 | –
CO[C@@H]1O[C@H](CO)[C@H](O[C@H]2O[C@H](CO)[C@@H](O)[C@H](O)[C@H]2O)[C@H](O)[C@H]1O [Compound 17] | 5100 | 3.8 | 1.82 | – | – | – | –
CO[C@H]1C[C@@H](O)[C@@H](O[C@H]2O[C@H](CO)[C@H](O)[C@H](O)[C@H]2O)[C@@H](CO)O1 [Compound 2] | 350 | 56 | 0.335 | – | – | – | –
OC[C@H]1O[C@H](O[C@@H]2[C@H](O)[C@@H](O)[C@H](OCCSCCCCCCCCCSCCO[C@@H]3O[C@H](CO)[C@H](O[C@H]4O[C@H](CO)[C@H](O)[C@H](O)[C@H]4O)[C@H](O)[C@H]3O)O[C@@H]2CO)[C@H](O)[C@@H](O)[C@H]1O [Compound 25] | – | – | – | 6.8 | 2900 | -7.8 | inhibitory power (in words): very high inhibitory power
CO[C@@H]1O[C@H](CO)[C@H](O[C@H]2O[C@H](CO)[C@H](O)C[C@H]2O)[C@H](O)[C@H]1O [Compound 6] | 6500 | 3.0 | 1.96 | – | – | – | –
C[Si](C)(C)CCO[C@@H]1O[C@H](CO)[C@@H](O[C@@H]2O[C@H](CO)[C@H](O[C@H]3O[C@H](CO)[C@H](O)[C@H](O)[C@H]3O)[C@H](O)[C@H]2O)[C@H](O)[C@H]1O [Compound 22] | – | – | – | 260 | 75 | 0.7 | –
